Test results as given in article PMC6294363, “Structural and functional insight into serine hydroxymethyltransferase from Helicobacter pylori” (PLoS ONE, 2018).

Tests used:
[1] = target: T1, HpSHMT (H. pylori SHMT; HP0183 gene product) (Helicobacter pylori, UniProt P56089); assay: coupled alcohol dehydrogenase assay, NADH oxidation at […] nm; format: biochemical; conditions: 20 uM SHMT, 250 uM PLP, 250 uM NADH, 50 mM phosphate pH 8.0, room temperature; folate-independent retroaldol cleavage
T1 construct: gene glyA; full-length, C-terminal 6xHis tag (pQE60), expressed in E. coli SG 13009; predicted monomer 46,776 Da; homodimer; purified largely as apoprotein
T1 sequence (P56089 1-416): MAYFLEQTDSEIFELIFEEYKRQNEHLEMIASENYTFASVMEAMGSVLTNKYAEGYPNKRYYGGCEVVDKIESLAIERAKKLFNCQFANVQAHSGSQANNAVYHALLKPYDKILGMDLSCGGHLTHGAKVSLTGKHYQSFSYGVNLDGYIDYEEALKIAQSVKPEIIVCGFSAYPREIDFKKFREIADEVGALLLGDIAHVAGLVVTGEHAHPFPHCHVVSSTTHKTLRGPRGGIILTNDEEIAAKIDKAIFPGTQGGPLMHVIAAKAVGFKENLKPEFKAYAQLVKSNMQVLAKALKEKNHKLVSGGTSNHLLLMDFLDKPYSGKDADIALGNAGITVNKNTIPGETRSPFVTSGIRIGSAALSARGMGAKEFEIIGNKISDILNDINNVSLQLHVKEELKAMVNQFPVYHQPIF

[2] = target: T1, HpSHMT (H. pylori SHMT; HP0183 gene product); assay: absorbance at […] nm of enzyme-PLP-glycine-folate ternary complex, MTHF titration; format: binding; conditions: read-out: apparent KFol
[3] = target: T1, HpSHMT (H. pylori SHMT; HP0183 gene product); assay: absorbance at […] nm of enzyme-PLP-glycine-folate ternary complex; format: binding; conditions: fixed 5 mM glycine with 250 uM PLP and 0-2 mM MTHF, pH 8.0, room temperature
[4] = target: the molecule itself; assay: crystal structure; HpSHMT apoprotein, hanging drop vapour diffusion, 20% PEG 3350, 0.2 M sodium acetate, room temperature; space group P212121, two monomers in the asymmetric unit; 2.8 Å

Molecule: C[C@H](O)[C@H](N)C(=O)O [L-allothreonine]
- coupled alcohol dehydrogenase assay, NADH oxidation at 340 nm [1]: it is able to transform L-allothreonine to acetaldehyde, thus confirming its activity as SHMT

Molecule: Nc1nc2c(c(=O)[nH]1)N1CN(c3ccc(C(=O)N[C@@H](CCC(=O)O)C(=O)O)cc3)C[C@H]1CN2 [MTHF]
- Kd [2]: 300 µM

Molecule: NCC(=O)O [glycine]
- absorbance at 502 nm of enzyme-PLP-glycine-folate ternary complex [3]: corresponding to the intermediate ternary enzyme-PLP-glycine-folate complex

B1: Serine hydroxymethyltransferase from Helicobacter pylori 26695 (HP0183 gene product) (enzyme, Helicobacter pylori strain 26695, UniProt P56089 1-416, looked up)
chain: MAYFLEQTDSEIFELIFEEYKRQNEHLEMIASENYTFASVMEAMGSVLTNKYAEGYPNKRYYGGCEVVDKIESLAIERAKKLFNCQFANVQAHSGSQANNAVYHALLKPYDKILGMDLSCGGHLTHGAKVSLTGKHYQSFSYGVNLDGYIDYEEALKIAQSVKPEIIVCGFSAYPREIDFKKFREIADEVGALLLGDIAHVAGLVVTGEHAHPFPHCHVVSSTTHKTLRGPRGGIILTNDEEIAAKIDKAIFPGTQGGPLMHVIAAKAVGFKENLKPEFKAYAQLVKSNMQVLAKALKEKNHKLVSGGTSNHLLLMDFLDKPYSGKDADIALGNAGITVNKNTIPGETRSPFVTSGIRIGSAALSARGMGAKEFEIIGNKISDILNDINNVSLQLHVKEELKAMVNQFPVYHQPIF
notes: Serine hydroxymethyltransferase (glyA, ORF HP0183) of Helicobacter pylori strain 26695; gene amplified with primers SA36/SA37 (from the ATG to the end of the ORF) and inserted into pQE60; residues 3-416 modelled in the crystal; Homodimer by crystal structure and dynamic light scattering; Predicted mass per monomer 46,776 Da; also called HpSHMT; SHMT; source: E. coli SG 13009 (pREP4), pQE60, …
- stoichiometry N [4]: 2
